From ChEMBL document CHEMBL3822442, “Synthesis and Pharmacological Characterization of Novel Glucagon-like Peptide-2 (GLP-2) Analogues with Low Systemic Clearance” (J Med Chem, 2016) come the findings set out here.

A short description of data set [1]: Systemic clearance in Sprague-Dawley rat at 0.2 mg/kg, iv through cassette dosing measured up to 300 mins by LC/MS/MS analysis. Type of data set: ADME, organism-based. The following applies: in vivo.
For data set [2], the target named is T1, Glucagon-like peptide 1 receptor (Homo sapiens, UniProt P43220). In words: Agonist activity at human GLP1R expressed in HEK293 cells after 5 hrs by luciferase reporter gene assay. The format is cell-based. For orientation: Reporter assays use an easily measured gene product as a stand-in for the process of interest.
T1 sequence (P43220 whole entry): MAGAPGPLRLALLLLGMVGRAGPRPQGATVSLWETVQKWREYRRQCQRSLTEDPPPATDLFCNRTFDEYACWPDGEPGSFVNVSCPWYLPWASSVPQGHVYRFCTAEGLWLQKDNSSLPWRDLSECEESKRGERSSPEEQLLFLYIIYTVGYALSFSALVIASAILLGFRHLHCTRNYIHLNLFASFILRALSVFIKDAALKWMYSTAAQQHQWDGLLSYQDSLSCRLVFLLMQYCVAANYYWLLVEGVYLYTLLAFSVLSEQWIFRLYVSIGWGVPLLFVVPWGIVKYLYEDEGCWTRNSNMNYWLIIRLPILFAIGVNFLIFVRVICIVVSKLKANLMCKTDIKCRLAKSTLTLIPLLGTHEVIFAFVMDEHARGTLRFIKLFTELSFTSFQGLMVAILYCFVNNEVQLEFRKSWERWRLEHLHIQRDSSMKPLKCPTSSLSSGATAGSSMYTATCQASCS
For data set [3], the target named is T1, Glucagon-like peptide 1 receptor. The experiment in a line: Agonist activity at human GLP1R expressed in HEK293 cells at 30 nM after 5 hrs by luciferase reporter gene assay. Type of data set: cell-based.
The next data set relates to HEK293. In words: Selectivity ratio of EC50 for human GLP1R expressed in HEK293 cells to EC50 for human GLP2R expressed in HEK293. Type of data set: cell-based.
Data set [4] deals with T2, Glucagon-like peptide 2 receptor (Homo sapiens, UniProt O95838).
T2 sequence (O95838 whole entry): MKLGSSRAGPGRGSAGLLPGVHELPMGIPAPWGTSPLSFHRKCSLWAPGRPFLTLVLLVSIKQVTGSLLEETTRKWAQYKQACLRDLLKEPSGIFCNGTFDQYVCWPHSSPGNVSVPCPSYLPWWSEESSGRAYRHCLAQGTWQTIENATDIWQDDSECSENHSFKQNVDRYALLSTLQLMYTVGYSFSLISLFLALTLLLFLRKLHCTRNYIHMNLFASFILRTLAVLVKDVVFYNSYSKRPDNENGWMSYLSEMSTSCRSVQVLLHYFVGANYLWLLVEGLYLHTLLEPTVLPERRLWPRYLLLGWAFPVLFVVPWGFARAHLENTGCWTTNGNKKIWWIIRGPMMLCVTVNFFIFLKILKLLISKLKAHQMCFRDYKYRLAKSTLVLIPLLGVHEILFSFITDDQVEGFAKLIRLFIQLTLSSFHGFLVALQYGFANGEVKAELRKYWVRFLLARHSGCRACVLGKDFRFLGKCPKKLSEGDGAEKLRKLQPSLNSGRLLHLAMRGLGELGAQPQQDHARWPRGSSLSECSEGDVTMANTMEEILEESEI
In words: Agonist activity at human GLP2R expressed in HEK293 cells after 5 hrs by luciferase reporter gene assay. The format is cell-based.

Data set [5] concerns the target Glucagon receptor (Homo sapiens) (UniProt P47871). In words: Agonist activity at human GCGR expressed in HEK293 cells after 5 hrs by luciferase reporter gene assay. Type of data set: cell-based.

Each structure is given as a SMILES string. Calls of active or inactive are those of the source. The rule behind the calls is not given here. Non-standard residues stand in square brackets, D forms with d. Residues, ends and D or L forms follow the SMILES beside them. ξ: configuration not given here. Cha = N[C@@H](CC1CCCCC1)C(=O)O; ξNle = CCCCC(N)C(=O)O

Glucagon receptor (Homo sapiens), sequence (P47871 whole entry): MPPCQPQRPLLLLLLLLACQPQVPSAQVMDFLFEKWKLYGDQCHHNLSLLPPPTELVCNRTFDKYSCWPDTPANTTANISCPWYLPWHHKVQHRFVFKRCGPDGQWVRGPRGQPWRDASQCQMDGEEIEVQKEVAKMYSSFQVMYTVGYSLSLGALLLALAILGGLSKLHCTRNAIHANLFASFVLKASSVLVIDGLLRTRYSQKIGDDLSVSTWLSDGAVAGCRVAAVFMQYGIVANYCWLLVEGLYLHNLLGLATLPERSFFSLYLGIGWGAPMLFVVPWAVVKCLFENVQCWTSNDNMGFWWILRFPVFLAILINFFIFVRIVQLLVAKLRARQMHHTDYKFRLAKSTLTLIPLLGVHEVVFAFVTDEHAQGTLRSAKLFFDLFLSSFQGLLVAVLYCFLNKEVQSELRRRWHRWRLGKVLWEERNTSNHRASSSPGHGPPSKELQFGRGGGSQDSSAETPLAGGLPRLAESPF

With `CCCCC(NC(=O)[C@H](CCC(=O)O)NC(=O)[C@H](CC(=O)O)NC(=O)[C@H](CO)NC(=O)[C@H](Cc1ccccc1)NC(=O)[C@H](CO)NC(=O)CNC(=O)[C@H](CC(=O)O)NC(=O)CNC(=O)[C@@H](N)Cc1cnc[nH]1)C(=O)N[C@@H](Cc1ccccc1)C(=O)N[C@H](C(=O)N[C@H](C(=O)N[C@@H](CC(C)C)C(=O)N[C@@H](CC(=O)O)C(=O)N[C@@H](CC(N)=O)C(=O)N[C@@H](CC(C)C)C(=O)N[C@@H](C)C(=O)N[C@@H](C)C(=O)N[C@@H](CCCNC(=N)N)C(=O)N[C@@H](CC(=O)O)C(=O)N[C@@H](Cc1ccccc1)C(=O)N[C@H](C(=O)N[C@@H](CC(N)=O)C(=O)N[C@@H](Cc1c[nH]c2ccccc12)C(=O)N[C@@H](CC(C)C)C(=O)N[C@H](C(=O)N[C@@H](CCC(N)=O)C(=O)N[C@H](C(=O)N[C@@H](CCCCN)C(N)=O)[C@@H](C)O)[C@@H](C)CC)[C@@H](C)CC)[C@@H](C)CC)[C@@H](C)O` (stereo partly specified), the clearance (in general, the volume of plasma or blood freed of the substance per unit of time) in data set [1] is 1.8 mL/min/kg. Further, the EC50 (commonly the concentration that produces a half-maximal response) in data set [2] was 16 nM; in data set [4], 0.15 nM. In data set [3], this compound registered an Efficacy of 94%. Besides, the Ratio EC50 in the data set on HEK293 stood at 100. Further, the outcome in data set [5] was inactive.

Compound `CCCCC(NC(=O)[C@H](CCC(=O)O)NC(=O)[C@H](CC(=O)O)NC(=O)[C@H](CO)NC(=O)[C@H](Cc1ccccc1)NC(=O)[C@H](CO)NC(=O)CNC(=O)[C@H](CC(=O)O)NC(=O)CNC(=O)[C@@H](N)Cc1cnc[nH]1)C(=O)N[C@H](C(=O)N[C@H](C(=O)N[C@H](C(=O)N[C@@H](CC(C)C)C(=O)N[C@@H](CC(=O)O)C(=O)N[C@@H](CC(N)=O)C(=O)N[C@@H](CC(C)C)C(=O)N[C@@H](C)C(=O)N[C@@H](C)C(=O)N[C@@H](CCCNC(=N)N)C(=O)N[C@@H](CC(=O)O)C(=O)N[C@@H](Cc1ccccc1)C(=O)N[C@H](C(=O)N[C@@H](CC(N)=O)C(=O)N[C@@H](Cc1c[nH]c2ccccc12)C(=O)N[C@@H](CC(C)C)C(=O)N[C@H](C(=O)N[C@@H](CCC(N)=O)C(=O)N[C@H](C(=O)N[C@@H](CCCCN)C(N)=O)[C@@H](C)O)[C@@H](C)CC)[C@@H](C)CC)[C@@H](C)CC)[C@@H](C)O)[C@@H](C)CC` (stereo partly specified) (H-HGDGSFSDE[ξNle]ITILDNLAARDFINWLIQTK-NH2) had a clearance in data set [1] of 5.6 mL/min/kg. Also, the EC50 was 110 nM in data set [2] and 0.13 nM in data set [4]. In data set [3], this compound yielded an Efficacy of 92%. Also, the Ratio EC50 with HEK293 worked out at 840. For the same compound, in data set [5], the outcome was inactive.

Compound `CCCCC(NC(=O)[C@H](CCC(=O)O)NC(=O)[C@H](CC(=O)O)NC(=O)[C@H](CO)NC(=O)[C@H](Cc1ccccc1)NC(=O)[C@H](CO)NC(=O)CNC(=O)[C@H](CC(=O)O)NC(=O)CNC(=O)[C@@H](N)Cc1cnc[nH]1)C(=O)N[C@H](Cc1cccs1)C(=O)N[C@H](C(=O)N[C@H](C(=O)N[C@@H](CC(C)C)C(=O)N[C@@H](CC(=O)O)C(=O)N[C@@H](CC(N)=O)C(=O)N[C@@H](CC(C)C)C(=O)N[C@@H](C)C(=O)N[C@@H](C)C(=O)N[C@@H](CCCNC(=N)N)C(=O)N[C@@H](CC(=O)O)C(=O)N[C@@H](Cc1ccccc1)C(=O)N[C@H](C(=O)N[C@@H](CC(N)=O)C(=O)N[C@@H](Cc1c[nH]c2ccccc12)C(=O)N[C@@H](CC(C)C)C(=O)N[C@H](C(=O)N[C@@H](CCC(N)=O)C(=O)N[C@H](C(=O)N[C@@H](CCCCN)C(N)=O)[C@@H](C)O)[C@@H](C)CC)[C@@H](C)CC)[C@@H](C)CC)[C@@H](C)O` (stereo partly specified) displayed a clearance in data set [1] of 1.1 mL/min/kg. The EC50 in data set [2] is 80 nM; in data set [4], 0.1 nM. The compound also had an Efficacy in data set [3] of 49%. Further, in the data set on HEK293, the Ratio EC50 was found to be 800. Moreover, the outcome in data set [5] was inactive.

Take `CCCCC(NC(=O)[C@H](CCC(=O)O)NC(=O)[C@H](CC(=O)O)NC(=O)[C@H](CO)NC(=O)[C@H](Cc1ccccc1)NC(=O)[C@H](CO)NC(=O)CNC(=O)[C@H](CC(=O)O)NC(=O)CNC(=O)[C@@H](N)Cc1cnc[nH]1)C(=O)N[C@@H](CC1CCCCC1)C(=O)N[C@H](C(=O)N[C@H](C(=O)N[C@@H](CC(C)C)C(=O)N[C@@H](CC(=O)O)C(=O)N[C@@H](CC(N)=O)C(=O)N[C@@H](CC(C)C)C(=O)N[C@@H](C)C(=O)N[C@@H](C)C(=O)N[C@@H](CCCNC(=N)N)C(=O)N[C@@H](CC(=O)O)C(=O)N[C@@H](Cc1ccccc1)C(=O)N[C@H](C(=O)N[C@@H](CC(N)=O)C(=O)N[C@@H](Cc1c[nH]c2ccccc12)C(=O)N[C@@H](CC(C)C)C(=O)N[C@H](C(=O)N[C@@H](CCC(N)=O)C(=O)N[C@H](C(=O)N[C@@H](CCCCN)C(N)=O)[C@@H](C)O)[C@@H](C)CC)[C@@H](C)CC)[C@@H](C)CC)[C@@H](C)O` (stereo partly specified) (H-HGDGSFSDE[ξNle][Cha]TILDNLAARDFINWLIQTK-NH2): the clearance in data set [1] turned out to be 0.69 mL/min/kg. Moreover, the EC50 in data set [2] came out at 8.9 nM; in data set [4], 0.51 nM. This compound gave an Efficacy in data set [3] of 83%. The Ratio EC50 in the data set with HEK293 amounted to 17. In addition, the result in data set [5] was inactive.

Turning to `CCCCC(NC(=O)[C@H](CCC(=O)O)NC(=O)[C@H](CC(=O)O)NC(=O)[C@H](CO)NC(=O)[C@H](Cc1ccccc1)NC(=O)[C@H](CO)NC(=O)CNC(=O)[C@H](CC(=O)O)NC(=O)CNC(=O)[C@@H](N)Cc1cnc[nH]1)C(=O)N[C@H](Cc1ccsc1)C(=O)N[C@H](C(=O)N[C@H](C(=O)N[C@@H](CC(C)C)C(=O)N[C@@H](CC(=O)O)C(=O)N[C@@H](CC(N)=O)C(=O)N[C@@H](CC(C)C)C(=O)N[C@@H](C)C(=O)N[C@@H](C)C(=O)N[C@@H](CCCNC(=N)N)C(=O)N[C@@H](CC(=O)O)C(=O)N[C@@H](Cc1ccccc1)C(=O)N[C@H](C(=O)N[C@@H](CC(N)=O)C(=O)N[C@@H](Cc1c[nH]c2ccccc12)C(=O)N[C@@H](CC(C)C)C(=O)N[C@H](C(=O)N[C@@H](CCC(N)=O)C(=O)N[C@H](C(=O)N[C@@H](CCCCN)C(N)=O)[C@@H](C)O)[C@@H](C)CC)[C@@H](C)CC)[C@@H](C)CC)[C@@H](C)O` (stereo partly specified), in data set [1], the clearance is 1.3 mL/min/kg. The EC50 in data set [2] was 83 nM; in data set [4], 0.09 nM. Further, the Efficacy in data set [3] was determined as 39%. In addition, the Ratio EC50 in the data set on HEK293 worked out at 920. Further, in data set [5], the outcome was inactive.

In data set [1], `CCCCC(NC(=O)[C@H](CCC(=O)O)NC(=O)[C@H](CC(=O)O)NC(=O)[C@H](CO)NC(=O)[C@H](Cc1ccccc1)NC(=O)[C@H](CO)NC(=O)CNC(=O)[C@H](CC(=O)O)NC(=O)CNC(=O)[C@@H](N)Cc1cnc[nH]1)C(=O)N[C@H](Cc1ccccc1Cl)C(=O)N[C@H](C(=O)N[C@H](C(=O)N[C@@H](CC(C)C)C(=O)N[C@@H](CC(=O)O)C(=O)N[C@@H](CC(N)=O)C(=O)N[C@@H](CC(C)C)C(=O)N[C@@H](C)C(=O)N[C@@H](C)C(=O)N[C@@H](CCCNC(=N)N)C(=O)N[C@@H](CC(=O)O)C(=O)N[C@@H](Cc1ccccc1)C(=O)N[C@H](C(=O)N[C@@H](CC(N)=O)C(=O)N[C@@H](Cc1c[nH]c2ccccc12)C(=O)N[C@@H](CC(C)C)C(=O)N[C@H](C(=O)N[C@@H](CCC(N)=O)C(=O)N[C@H](C(=O)N[C@@H](CCCCN)C(N)=O)[C@@H](C)O)[C@@H](C)CC)[C@@H](C)CC)[C@@H](C)CC)[C@@H](C)O` (stereo partly specified) came in with a clearance of 0.73 mL/min/kg. The figures for the half-maximal effective concentration (EC50) in data set [2] and in data set [4] were 100 nM and 0.11 nM, respectively. In data set [3], the Efficacy stood at 36%. Also, the Ratio EC50 in the data set with HEK293 was 900. For the same compound, in data set [5], the result was inactive.
